In BindingDB's records for doi:10.7270/Q2TX3CSC (Vanderbilt Screening Center for GPCRs, Ion Channels and …, 2009):

Target: T1, Solute carrier family 12 member 5 (Homo sapiens, UniProt Q9H2X9)
T1 sequence (Q9H2X9 whole entry): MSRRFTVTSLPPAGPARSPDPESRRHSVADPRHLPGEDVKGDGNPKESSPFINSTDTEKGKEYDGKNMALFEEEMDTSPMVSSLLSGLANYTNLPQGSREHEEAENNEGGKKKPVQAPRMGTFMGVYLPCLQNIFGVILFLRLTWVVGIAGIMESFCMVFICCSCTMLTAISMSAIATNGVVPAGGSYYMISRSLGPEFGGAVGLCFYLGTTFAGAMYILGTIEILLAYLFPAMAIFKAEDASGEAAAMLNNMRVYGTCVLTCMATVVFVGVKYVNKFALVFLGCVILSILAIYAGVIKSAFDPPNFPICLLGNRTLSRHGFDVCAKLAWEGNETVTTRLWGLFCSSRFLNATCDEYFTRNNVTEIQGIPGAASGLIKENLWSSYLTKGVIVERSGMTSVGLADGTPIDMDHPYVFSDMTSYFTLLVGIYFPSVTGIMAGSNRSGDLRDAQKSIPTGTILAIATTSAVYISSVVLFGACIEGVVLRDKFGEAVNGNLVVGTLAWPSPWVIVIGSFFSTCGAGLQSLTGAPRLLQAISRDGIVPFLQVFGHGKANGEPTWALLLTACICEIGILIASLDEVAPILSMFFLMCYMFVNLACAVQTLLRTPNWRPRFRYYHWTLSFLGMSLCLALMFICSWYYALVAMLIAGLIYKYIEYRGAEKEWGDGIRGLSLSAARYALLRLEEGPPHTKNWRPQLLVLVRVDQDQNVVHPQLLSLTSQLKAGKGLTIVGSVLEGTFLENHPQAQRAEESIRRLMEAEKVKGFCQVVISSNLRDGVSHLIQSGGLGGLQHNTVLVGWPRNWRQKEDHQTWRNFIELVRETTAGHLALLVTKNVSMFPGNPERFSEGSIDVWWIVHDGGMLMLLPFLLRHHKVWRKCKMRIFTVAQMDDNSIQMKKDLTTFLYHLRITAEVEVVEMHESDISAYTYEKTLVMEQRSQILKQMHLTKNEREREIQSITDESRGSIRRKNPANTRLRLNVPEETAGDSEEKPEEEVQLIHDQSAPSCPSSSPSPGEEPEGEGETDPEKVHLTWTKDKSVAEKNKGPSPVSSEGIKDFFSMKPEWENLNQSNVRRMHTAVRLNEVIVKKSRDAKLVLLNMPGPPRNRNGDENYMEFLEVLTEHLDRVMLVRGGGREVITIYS
Test: KCC2 modulator potency by thallium flux, dose response, cell-based, HEK293 KCC2, FluoZin-2 fluorescence (AID 1736)

[1] = inactive by the depositor's call

| EC50 [1] [µM] | EC50 [µM] | SMILES |
| --- | --- | --- |
| – | 1.9 | COc1ccccc1-n1cnc2cc(NS(=O)(=O)c3ccccc3)ccc21 [MLS000032522] |
| – | 3.38 | Cc1ccc2c(c1)nnn2C1CCN(S(=O)(=O)c2cccc(S(=O)(=O)N(C)C)c2)CC1 [MLS000033642] |
| – | 34.5 | O=C(CSc1ncccc1-c1nc2ccccc2[nH]1)N1CCN(c2ccccc2F)CC1 [MLS000033700] |
| – | 3.24 | N#Cc1ccccc1NC(=O)CSc1nccn1CCc1ccccc1 [MLS000051858] |
| – | 21.3 | Cc1nn(-c2nc3ccccc3[nH]2)c(N)c1-c1ccccc1 [MLS000063763] |
| – | 1.65 | O=S(=O)(NCCc1ccccc1F)c1cccc(S(=O)(=O)N2CCOCC2)c1 [MLS000076090] |
| 22.6 | – | Cc1cccc(N2CCN(C(=O)CCCn3c(=S)[nH]c4cc5c(cc4c3=O)OCO5)CC2)c1C [MLS000095366] |
| – | 174 | O=C(NCCc1csc(-c2ccccc2)n1)c1cccs1 [MLS000102716] |
| – | 4.95 | O=C(Nc1ccc2oc(-c3ccccc3)nc2c1)c1ccncc1 [MLS000109492] |
| – | 10.3 | Cn1c(C(=O)NCCCN2CCN(c3ccccc3F)CC2)cc2c(=O)n(C)c3ccccc3c21 [MLS000118127] |
| – | 3.19 | Cn1c(C(=O)NCCN2CCN(c3ccccc3F)CC2)cc2c(=O)n(C)c3ccccc3c21 [MLS000118132] |
| – | 51.2 | Cc1nn(C)c(C)c1C=C1SC(S)=NC1=O [MLS000324943] |
| – | 3.59 | O=C(Cc1csc(-c2ccccc2)n1)NCc1ccc(F)cc1 [MLS000336311] |
| 2.2 | – | COc1cc(-c2nnc(CSc3nnc(Nc4ccc(C(C)C)cc4)s3)o2)cc(OC)c1OC [MLS000391281] |
| – | 1.1 | CCN(CC)S(=O)(=O)c1ccc(NC(=O)CSc2ncnc3ccccc23)cc1 [MLS000393282] |
| 87700 | – | CN(C)S(=O)(=O)c1ccc(NC(=O)CSc2ncnc3ccccc23)cc1 [MLS000394067] |
| – | 24.6 | CNc1ccc(/C=C(\CCC(=O)O)c2nc3ccccc3s2)cc1[N+](=O)[O-] [MLS000394200] |

| EC50 [1] [µM] | EC50 [µM] | SMILES |
| --- | --- | --- |
| 2.62 | – | COc1ccc(OC)c2sc(NNC(=O)COc3ccccc3)nc12 [MLS000419249] |
| – | 5.57 | CS(=O)(=O)N(CC(=O)N1CCN(c2ccc(F)cc2)CC1)c1ccc(F)c(Cl)c1 [MLS000531433] |
| – | 3.72 | Cc1ccc(C(=O)Nc2nc(=O)n(C(=O)c3ccccc3Cl)s2)cc1 [MLS000540480] |
| – | 0.024 | O=C(NNc1nc(-c2ccccc2)cs1)c1ccccc1 [MLS000547345] |
| – | 4.57 | CCn1c(CCNC(=O)c2cccs2)nnc1SCC(=O)Nc1nc(-c2ccccc2)cs1 [MLS000548611] |
| – | 23.6 | O=[N+]([O-])c1ccccc1C=C[CH+][N-]n1c(-c2ccc(Cl)cc2)n[nH]c1=S [MLS000555506] |
| – | 212 | O=C(CC(Cc1ccccc1)c1ccco1)NC1CCCCC1 (stereo unspecified) [MLS000556612] |
| – | 3.77 | O=C(O)/C=C/c1cn(Cc2ccccc2)nc1-c1ccccc1 [MLS000567315] |
| – | 2.8 | CNC(=O)/C(=C\C=C\c1ccccc1)NC(=O)c1ccc([N+](=O)[O-])cc1 [MLS000570424] |
| 3.68 | – | O=C(/C=C/c1cccc([N+](=O)[O-])c1)Nc1cccc(NC(=O)c2cccs2)c1 [MLS000574752] |
| – | 1.38 | CCc1ccc(OCCNC(=O)c2ccccc2SCc2ccc(F)cc2)cc1 [MLS000577152] |
| – | 6.75 | CCCC1=NN2C(=N)/C(=C\c3cc(C)n(-c4cc(C)cc(C)c4)c3C)C(=O)N=C2S1 [MLS000588586] |
| – | 28.2 | CCn1c(SCC(=O)Nc2ccc(Cl)cc2)nc2nc3c(cc2c1=O)CCCC3 [MLS000589154] |
| – | 5.12 | O=C(CSc1ccc(-c2cccs2)nn1)Nc1ccccc1F [MLS000621184] |
| – | 19.5 | COc1cccc(CNC(=O)CSc2ccc(-c3cccs3)nn2)c1 [MLS000621194] |
| – | 6.49 | O=C(NCc1nc(-c2ccccc2)cs1)c1ccccc1 [MLS000661971] |

Second part, the compound before the results:

| SMILES | EC50 [1] [µM] | EC50 [µM] |
| --- | --- | --- |
| COC(=O)[C@@H](NC(=O)O[C@@H]1C(=O)c2cc(Br)ccc2O[C@H]1c1cccc(OC)c1)C(C)C [(2S)-2-[[(2S,3S)-6-bromo-4-keto-2-(3-methoxyphenyl)chroman-3-yl]oxycarbonylamino]-3-methyl-butyric acid methyl ester] | 33.7 | – |
| N#CC(C(=O)COc1ccccc1)c1nc2ccccc2s1 (stereo unspecified) [(2Z)-2-(3H-1,3-benzothiazol-2-ylidene)-3-keto-4-phenoxy-butyronitrile] | – | 8.56 |
| O=C(OCn1ncc(Cl)c(Cl)c1=O)c1ccc(F)cc1 [(4,5-dichloro-6-oxopyridazin-1-yl)methyl 4-fluorobenzoate] | – | 14.1 |
| CC(C)c1onc(C(=O)N2CCN(Cc3ccccc3)CC2)c1[N+](=O)[O-] [(4-benzylpiperazin-1-yl)-(4-nitro-5-propan-2-yl-1,2-oxazol-3-yl)methanone] | – | 0.34 |
| Cc1onc(C(=O)N2CCN(Cc3ccccc3)CC2)c1[N+](=O)[O-] [(4-benzylpiperazin-1-yl)-(5-methyl-4-nitro-1,2-oxazol-3-yl)methanone] | – | 59.4 |
| COc1ccc(C(=O)N2CCCC(c3ccccc3)C2)cc1 (stereo unspecified) [(4-methoxyphenyl)-(3-phenyl-1-piperidinyl)methanone] | – | 7.32 |
| CCOc1[nH]n(-c2ccccc2)c(=O)c1C=Nc1ccc(F)cc1F [(4E)-4-[[[2,4-bis(fluoranyl)phenyl]amino]methylidene]-5-ethoxy-2-phenyl-pyrazol-3-one] | – | 0.461 |
| Cc1cc2ccccn2c1C(=O)c1nc(N2CCOCC2)ncc1Cl [(5-chloranyl-2-morpholin-4-yl-pyrimidin-4-yl)-(2-methylindolizin-3-yl)methanone] | 11 | – |
| Cc1ccc(/C=C2\SC(=S)N(/N=C/C3C=C([N+](=O)[O-])C=CC3=O)C2=O)o1 (stereo unspecified) [(5Z)-5-[(5-methylfuran-2-yl)methylidene]-3-[[(E)-(3-nitro-6-oxocyclohexa-2,4-dien-1-ylidene)methyl]amino]-2-sulfanylidene-1,3-thiazolidin-4-one] | – | 11.8 |
| Oc1ccccc1CN=Nc1nc2ccccc2o1 [(6E)-6-[(1,3-benzoxazol-2-ylhydrazo)methylidene]-1-cyclohexa-2,4-dienone] | – | 98.9 |
| O=C(/C=C/c1ccco1)N1CCC(Cc2ccccc2)CC1 [(E)-1-(4-benzylpiperidin-1-yl)-3-(furan-2-yl)prop-2-en-1-one] | – | 6.56 |
| CC1Cc2ccccc2N1C(=O)/C=C/c1cccc(F)c1 (stereo unspecified) [(E)-3-(3-fluorophenyl)-1-(2-methyl-2,3-dihydroindol-1-yl)-2-propen-1-one] | – | 129 |
| COc1ccc(-c2nnc(S/C(=C/c3ccc(Cl)cc3)C(=O)O)o2)cc1 [(E)-3-(4-chlorophenyl)-2-[[5-(4-methoxyphenyl)-1,3,4-oxadiazol-2-yl]sulfanyl]prop-2-enoic acid] | – | 0.287 |
| O=C(O)/C=C/c1cn(Cc2ccccc2Cl)nc1-c1ccccc1 [(E)-3-[1-(2-chlorobenzyl)-3-phenyl-pyrazol-4-yl]acrylic acid] | – | 3.26 |
| O=C(O)/C=C/c1cn(Cc2ccccc2)nc1-c1ccc(Cl)cc1 [(E)-3-[1-benzyl-3-(4-chlorophenyl)pyrazol-4-yl]acrylic acid] | 26.3 | – |
| Cc1ccc(-c2nn(Cc3ccccc3)cc2/C=C/C(=O)O)cc1 [(E)-3-[1-benzyl-3-(4-methylphenyl)pyrazol-4-yl]prop-2-enoic acid] | 12.1 | – |
| O=C(O)CC/C(=C\c1ccccc1[N+](=O)[O-])c1nc2ccccc2s1 [(E)-4-(1,3-benzothiazol-2-yl)-5-(2-nitrophenyl)-4-pentenoic acid] | – | 500 |
| O=C(O)CC/C(=C\c1ccc(N2CCOCC2)c([N+](=O)[O-])c1)c1nc2ccccc2s1 [(E)-4-(1,3-benzothiazol-2-yl)-5-(4-morpholin-4-yl-3-nitro-phenyl)pent-4-enoic acid] | – | 2.66 |
| COc1ccccc1N1CCN(C(=S)NC(=O)/C=C/c2ccccc2)CC1 [(E)-N-[4-(2-Methoxy-phenyl)-piperazine-1-carbothioyl]-3-phenyl-acrylamide] | – | 20 |
| CC[C@H](CO)Nc1nc(Nc2cccc(Cl)c2)c2ncn(C(C)C)c2n1 [(R)-2-(6-(3-chlorophenylamino)-9-isopropyl-9H-purin-2-ylamino)butan-1-ol] | – | 9.54 |
| O=C(CNC(=O)/C(=C\c1ccc(Br)cc1)NC(=O)c1ccccc1)OCc1ccccc1 [(phenylmethyl) 2-[[(E)-2-benzamido-3-(4-bromophenyl)prop-2-enoyl]amino]ethanoate] | – | 0.993 |
| O=C(CNC(=O)/C(=C/c1ccccc1)NC(=O)c1ccc(Br)cc1)OCc1ccccc1 [(phenylmethyl) 2-[[(Z)-2-[(4-bromophenyl)carbonylamino]-3-phenyl-prop-2-enoyl]amino]ethanoate] | – | 1.15 |
| CCCCNc1cc(C(=O)O)cc(S(N)(=O)=O)c1Oc1ccccc1 [Fordiuran] | – | 4.69e-05 |
